From patent US5962640A, “Methods for preparing novel dipeptide compounds or pharmacuetically acceptable salts thereof” (Japan Energy Corporation, priority 1995, dated 1999)

Columns and labels:
[1] = biological target: T1, Recombinant HIV protease (Human immunodeficiency virus type 1 group M subtype B, UniProt P04585); test: HIV protease inhibitory activity (cleavage of synthetic hepta-peptide, HPLC); type: biochemical; conditions: for inhibition at 5 µM: read-out: HIV protease inhibitory activity (%); for inhibition at 0.05 µM: concentration 50 nM (final), 37° C., 60 min
T1 construct: Recombinant HIV protease
Method: Recombinant HIV protease (Biochemistry, 250 (9), 264 (1990)) and synthetic hepta-peptide (H-Ser-Gln-Asn-Tyr-Pro-Ile-Val-OH/trifluoroacetic acid salt) were used for assay of protease activity. Peptide fragment H-Pro-Ile-Val-OH formed by cleavage between -Tyr . . . Pro of said substrate after a reaction in the presence of various concentration of tested compound at 37° C. for 60 min. was determined by reversed phase HPLC and the inhibitory rate was calculated (referred to Japanese laid-open unexamined patent, No. 170722/1993).
The concentration of tested compound represents the final concentration thereof of the reaction mixture.

[2] = Pharmacokinetics in rats, intravenous or intraduodenal administration, plasma concentration; type: in vivo; conditions: 10.0 mg/kg
Method: Metabolic characteristics of the dipeptide compounds of the present invention was evaluated using rats. Tested compounds dissolved in vehicle was administered intraduodenally or intravenously. After administration, blood was taken and the concentration of residual tested compound in plasma was analyzed. The dosage of the tested compound was described in table 3.

Structure (SMILES)	inhibition at 5 µM [1] [%]	inhibition at 0.05 µM [1] [%]	AUC ([2]; i.d.) [µg/mL/min]	AUC ([2]; i.v.) [µg/mL/min]
CC(C)(C)NC(=O)[C@@H]1CSCN1C(=O)[C@@H](O)[C@H](Cc1ccccc1)NC(=O)c1ccccc1 [Compound of example 1, (R)-N-tert-butyl-3-[(2S,3S)-2-hydroxy-3-[benzoyl]amino-4-phenylbutanoyl]-1,3-thiazolidine-4-carboxamide]	52			
Cc1ccccc1C(=O)N[C@@H](Cc1ccccc1)[C@H](O)C(=O)N1CSC[C@H]1C(=O)NC(C)(C)C [Compound of example 2, (R)-N-tert-butyl-3-[(2S,3S)-2-hydroxy-3-[2-methylbenzoyl]amino-4-phenylbutanoyl]-1,3-thiazolidine-4-carboxamide]	74.9			
CC(C)(C)NC(=O)[C@@H]1CSCN1C(=O)[C@@H](O)[C@H](Cc1ccccc1)NC(=O)c1cccc(O)c1 [Compound of example 6, (R)-N-tert-butyl-3-[(2S,3S)-2-hydroxy-3-[3-hydroxybenzoyl]amino-4-phenylbutanoyl]-1,3-thiazolidine-4-carboxamide]	76			
CC(C)(C)NC(=O)[C@@H]1CSCN1C(=O)[C@@H](O)[C@H](Cc1ccccc1)NC(=O)c1ccc(O)cc1 [Compound of example 7, (R)-N-tert-butyl-3-[(2S,3S)-2-hydroxy-3-[4-hydroxybenzoyl]amino-4-phenylbutanoyl]-1,3-thiazolidine-4-carboxamide]	62.2			
CC(C)(C)NC(=O)[C@@H]1CSCN1C(=O)[C@@H](O)[C@H](Cc1ccccc1)NC(=O)c1ccc(C(=O)O)cc1 [Compound of example 13, (R)-N-tert-butyl-3-[(2S,3S)-2-hydroxy-3-[4-carboxybenzoyl]amino-4-phenylbutanoyl]-1,3-thiazolidine-4-carboxamide]	70.4			
Cc1c(N)cccc1C(=O)N[C@@H](Cc1ccccc1)[C@H](O)C(=O)N1CSC[C@H]1C(=O)NC(C)(C)C [Compound of example 25, (R)-N-tert-butyl-3-[(2S,3S)-2-hydroxy-3-[3-amino-2-methylbenzoyl]amino-4-phenylbutanoyl]-1,3-thiazolidine-4-carboxamide]	81.3			
Cc1cccc(C(=O)N[C@@H](Cc2ccccc2)[C@H](O)C(=O)N2CSC[C@H]2C(=O)NC(C)(C)C)c1C [Compound of example 26, (R)-N-tert-butyl-3-[(2S,3S)-2-hydroxy-3-(2,3-dimethylbenzoyl]amino-4-phenylbutanoyl]-1,3-thiazolidine-4-carboxamide]	77.9			
CC(C)(C)NC(=O)[C@@H]1CSCN1C(=O)[C@@H](O)[C@H](Cc1ccccc1)NC(=O)c1cc(O)cc(O)c1 [Compound of example 29, (R)-N-tert-butyl-3-[(2S,3S)-2-hydroxy-3-(3,5-dihydroxybenzoyl)amino-4-phenylbutanoyl]-1,3-thiazolidine-4-carboxamide]	75.6			
CCCc1c(O)cccc1C(=O)N[C@@H](Cc1ccccc1)[C@H](O)C(=O)N1CSC[C@H]1C(=O)NC(C)(C)C [Compound of example 32, (R)-N-tert-butyl-3-[(2S,3S)-2-hydroxy-3-(3-hydroxy-2-propylbenzoyl)amino-4-phenylbutanoyl]-1,3-thiazolidine-4-carboxamide]	92	17.2		
Cc1c(N)cc(N)cc1C(=O)N[C@@H](Cc1ccccc1)[C@H](O)C(=O)N1CSC[C@H]1C(=O)NC(C)(C)C [Compound of example 33, (R)-N-tert-butyl-3-[(2S,3S)-2-hydroxy-3-(3,5-diamino-2-methylbenzoyl)amino-4-phenylbutanoyl]-1,3-thiazolidine-4-carboxamide]	85.2			
Cc1ccccc1CNC(=O)[C@H]1N(C(=O)[C@@H](O)[C@H](Cc2ccccc2)NC(=O)c2cccc(O)c2C)CSC1(C)C [Compound of example 37, (R)-N-(2-methylbenzyl)-3-[(2S,3S)-3-(3-hydroxy-2-methylbenzoyl)amino-2-hydroxy-4-phenylbutanoyl]-5,5-dimethyl-1,3-thiazolidine-4-carboxamide]	> 99	95.8	55	131
CCCCNC(=O)[C@@H]1CSCN1C(=O)[C@@H](O)[C@H](Cc1ccccc1)NC(=O)c1cccc(O)c1C [Compound of example 39, (R)-N-n-butyl-3-[(2S,3S)-3-(3-hydroxy-2-methylbenzoyl)amino-2-hydroxy-4-phenylbutanoyl]-1,3-thiazolidine-4-carboxamide]	92	13.4		
Cc1ccccc1CNC(=O)[C@H]1NC[C@@H](Cl)C1C(=O)[C@@H](O)[C@H](Cc1ccccc1)NC(=O)c1cccc(O)c1C (stereo partly drawn) [Compound of example 41, (2S,4S)-N-(2-methylbenzyl)-3-[(2S,3S)-3-(3-hydroxy-2-methylbenzoyl)amino-2-hydroxy-4-phenylbutanoyl]-4-chloropyrrolidine-2-carboxamide]	97.7	76.8		
Cc1c(O)cccc1C(=O)N[C@@H](Cc1ccccc1)[C@H](O)C(=O)N1CSC[C@H]1C(=O)NCc1ccccc1Cl [Compound of example 42, (R)-N-(2-chlorobenzyl)-3-[(2S,3S)-3-(3-hydroxy-2-methylbenzoyl)amino-2-hydroxy-4-phenylbutanoyl]-1,3-thiazolidine-4-carboxamide]	97.4	51.2		
Cc1cccc(C)c1CNC(=O)[C@@H]1CSCN1C(=O)[C@@H](O)[C@H](Cc1ccccc1)NC(=O)c1cccc(O)c1C [Compound of example 44, (R)-N-(2,6-dimethylbenzyl)-3-[(2S,3S)-3-(3-hydroxy-2-methylbenzoyl)amino-2-hydroxy-4-phenylbutanoyl]-1,3-thiazolidine-4-carboxamide]	97.9	75.2		
Cc1c(O)cccc1C(=O)N[C@@H](Cc1ccccc1)[C@H](O)C(=O)N1CSC(C)(C)[C@H]1C(=O)NCc1ccccc1Cl [Compound of example 45, (R)-N-(2-chlorobenzyl)-3-[(2S,3S)-3-(3-hydroxy-2-methylbenzoyl)amino-2-hydroxy-4-phenylbutanoyl]-5,5-dimethylthiazolidine-4-carboxamide]	> 99	94.5		
